The target of one data set is T1, PI3Kα (Homo sapiens, UniProt P42336).
T1 construct: purchased Life Technologies (Thermo Fisher Scientific)
The data set is described as follows: PI3K kinase screening assay (ADAPTA). Type of data set: biochemical. The method, then: (§1) In effort to enhance its potency, we designed a new set of chemotypes by in silico screening. […] These compounds were synthesized and their activities toward BRD4BD1 and BRD4BD2 were assessed in a displacement binding assay using the polyacetylated histone H4 peptide H4K5acK8acK12acK16ac as a ligand (Fig. 1b).
(§2) PI3K activity screening and IC50 measurements were performed by Life Technologies (Thermo Fisher Scientific) using ADAPTA, a fluorescence-based in vitro assay.

Data set [1] relates to JeKo-1 cells. The data set is described as follows: CellTiter-Glo cell viability assay, JeKo-1. Type of data set: cell-based. To be noted: Homo sapiens, mantle cell lymphoma, 48 h, read-out: IC50 anti-proliferative activity, JeKo-1. The text has this:
(§3) Although many inhibitors of BRD4 have been developed, the importance of inhibition of both BDs to subdue pathological processes remains unclear, as the two bromodomains have high sequence similarity. We therefore examined whether inhibition of only one bromodomain of BRD4 could lead to sufficient anti-cancer effects.
(§4) All cell lines were obtained from ATCC and tested for mycoplasma and mouse pathogens and checked for authenticity against the International Cell Line Authentication Committee (ICLAC; https://iclac.org/databases/cross-contaminations/) list. Cell viability measurements were performed using CellTiter-Glo luminescent cell viability assay (Promega). […] Cell Titer Glow assay reagent (100 µl) was added to each well and incubated for 10 min at room temperature. Luminescence signal was measured in a Varioscan multimode reader.
(In general: In ATP-based viability assays light output follows the ATP content of the culture.)

Data set [2] has as its system AKT phosphorylation at Ser473 (PI3K activity) in JeKo-1 cells. The data set is described as follows: Western blot of AKT phosphorylation at Ser473 in IgM-stimulated JeKo-1 cells. The format is cell-based. The conditions noted are these: JeKo-1 cells stimulated with IgM, 1 h incubation, increasing concentrations up to 5 µM. Here is the method:
as §3
Cells were resuspended with 1 ml of RPMI-1640 (serum free) and stimulated with 10 µg/ml of goat F(ab) 2 anti-human IgM antibody (Southern Biotech Birmingham, AL, USA) at 37 °C for 10 min. Cells were then harvested and lysed with RIPA buffer followed by Western blot analysis for pAKT expression.
(In general: A western blot detects proteins with antibodies after separation by electrophoresis.)

A further data set relates to SKNBE-2 cells. The data set is described as follows: CellTiter-Glo cell viability assay, SKNBE-2. The format is cell-based. To be noted: Homo sapiens, SKNBE2, 48 h, read-out: IC50 anti-proliferative activity, neuroblastoma (SKNBE-2).
Source text: as §3, §4

The subject of another data set is HCT116 cells. As to the kind of experiment: CellTiter-Glo cell viability assay, HCT116. Type of data set: cell-based. To be noted: Homo sapiens, HCT-116, 48 h, read-out: IC50 anti-proliferative activity, colon carcinoma (HCT116).
Source text: as §3, §4

The next data set relates to PC3 cells. The data set is described as follows: CellTiter-Glo cell viability assay, PC3. To be noted: PTEN mutated, 48 h. The format is cell-based.
Source text: as §3, §4

The next data set relates to Mino cells. The data set is described as follows: CellTiter-Glo cell viability assay, Mino. The conditions noted are these: Homo sapiens, mantle cell lymphoma, 48 h, read-out: IC50 anti-proliferative activity, Mino. The format is cell-based.
Source text: as §3, §4

The target in a further data set is T2, BRD4BD1 (Homo sapiens, UniProt O60885).
T2 construct: His; purchased Reaction Biology
The data set is described as follows: AlphaScreen displacement binding assay with tetra-acetylated histone H4 peptide, BRD4BD1. The conditions noted are these: for IC50: displacement of H4K5acK8acK12acK16ac peptide. Here is the method: as §1, §2

Another data set has as its system Z138 cells. As to the kind of experiment: CellTiter-Glo cell viability assay, Z138. Type of data set: cell-based. The conditions noted are these: Homo sapiens, Z-138, mantle cell lymphoma, 48 h, read-out: IC50 anti-proliferative activity, Z138.
Source text: as §3, §4

The target in the next data set is T3, BRD4BD2 (Homo sapiens, UniProt O60885).
T3 construct: His; purchased Reaction Biology
The data set is described as follows: AlphaScreen displacement binding assay with tetra-acetylated histone H4 peptide, BRD4BD2. The conditions noted are these: displacement of H4K5acK8acK12acK16ac peptide. The method, then:
as §1, §2
Background: Alpha assays give light when donor and acceptor beads are brought close together.

In data set [3] the test system is Huh7 subcutaneous xenografts. The data set is described as follows: Huh7 subcutaneous xenograft in NGS mice. The format is in vivo. The conditions noted are these: 30 mg/kg oral gavage, one week.
Experimental: (§7) Asterisks denote p ≤ 0.05 in comparison with vehicle control by unpaired Student’s t test.
(§8) All procedures involving animals were approved by the UCSD Animal Care Committee, which serves to ensure that all federal guidelines concerning animal experimentation are met. Six to eight week old NGS mice were implanted with 10^7 Huh7 or Jeko-1 cells in the right flank. When tumors reached ∼100 mm^3 after tumor implantation, animals were divided into four groups (n = 8 per group). […] Mice were treated for 1 week by oral gavage, 5 times per week.
Data set [4] has as its system Huh7 cells. The data set is described as follows: FITC-annexin V apoptosis assay, Huh7. Type of data set: cell-based. The conditions noted are these: treatment at the IC50, 24 h. The method, then:
(§5) (Fig. 2a). […] Palbociclib was used as control given its known inhibition of CDK4/6 and resultant G1 cell cycle growth arrest. […] We next assessed the level of apoptosis by FITC-annexin V incorporation in each of these cell lines.
(§6) Huh7, CHLA-255, or Jeko-1 cells were seeded at 1.5 × 10^6 cells in 60-mm tissue culture dishes and allowed to adhere overnight. […] Cells were released with Accutase (Innovative Cell Technologies, San Diego, CA), washed with PBS and divided for either staining with the FITC Annexin V Apoptosis Detection Kit (BD Biosciences, San Jose, CA) or overnight fixation with ethanol followed by staining with propidium iodide (Roche, Basel, Switzerland) according to each manufacturers’ instructions. Cell staining was analyzed with the FACSCalibur flow cytometer (BD Biosciences) and FlowJo (FlowJo LLC, Ashland, Oregon) and ModFit LT (Verity Software House, Topsham, ME) software packages.

Data set [5] concerns JeKo-1 subcutaneous xenografts. As to the kind of experiment: JeKo-1 subcutaneous xenograft in NGS mice. The format is in vivo. The conditions noted are these: 40 mg/kg oral gavage, one week.
Experimental: as §7, §8
The test system of data set [6] is JeKo-1 cells. The data set is described as follows: Propidium iodide flow cytometry cell cycle analysis, JeKo-1. To be noted: 24 h. The format is cell-based. Here is the method:
as §5, §6

For the next data set, the system named is CDK4. On the set-up: method as in PMID 32793389. To be noted: previously identified; cited from earlier work.
In data set [7] the test system is Huh7 cells. The data set is described as follows: Propidium iodide flow cytometry cell cycle analysis, Huh7. Type of data set: cell-based. To be noted: 24 h. Here is the method:
as §5, §6

In another data set the test system is CHLA-255 cells. The data set is described as follows: Propidium iodide flow cytometry cell cycle analysis, CHLA-255. Type of data set: cell-based. To be noted: 24 h. The method, then:
as §5, §6

T1 sequence (P42336 whole entry): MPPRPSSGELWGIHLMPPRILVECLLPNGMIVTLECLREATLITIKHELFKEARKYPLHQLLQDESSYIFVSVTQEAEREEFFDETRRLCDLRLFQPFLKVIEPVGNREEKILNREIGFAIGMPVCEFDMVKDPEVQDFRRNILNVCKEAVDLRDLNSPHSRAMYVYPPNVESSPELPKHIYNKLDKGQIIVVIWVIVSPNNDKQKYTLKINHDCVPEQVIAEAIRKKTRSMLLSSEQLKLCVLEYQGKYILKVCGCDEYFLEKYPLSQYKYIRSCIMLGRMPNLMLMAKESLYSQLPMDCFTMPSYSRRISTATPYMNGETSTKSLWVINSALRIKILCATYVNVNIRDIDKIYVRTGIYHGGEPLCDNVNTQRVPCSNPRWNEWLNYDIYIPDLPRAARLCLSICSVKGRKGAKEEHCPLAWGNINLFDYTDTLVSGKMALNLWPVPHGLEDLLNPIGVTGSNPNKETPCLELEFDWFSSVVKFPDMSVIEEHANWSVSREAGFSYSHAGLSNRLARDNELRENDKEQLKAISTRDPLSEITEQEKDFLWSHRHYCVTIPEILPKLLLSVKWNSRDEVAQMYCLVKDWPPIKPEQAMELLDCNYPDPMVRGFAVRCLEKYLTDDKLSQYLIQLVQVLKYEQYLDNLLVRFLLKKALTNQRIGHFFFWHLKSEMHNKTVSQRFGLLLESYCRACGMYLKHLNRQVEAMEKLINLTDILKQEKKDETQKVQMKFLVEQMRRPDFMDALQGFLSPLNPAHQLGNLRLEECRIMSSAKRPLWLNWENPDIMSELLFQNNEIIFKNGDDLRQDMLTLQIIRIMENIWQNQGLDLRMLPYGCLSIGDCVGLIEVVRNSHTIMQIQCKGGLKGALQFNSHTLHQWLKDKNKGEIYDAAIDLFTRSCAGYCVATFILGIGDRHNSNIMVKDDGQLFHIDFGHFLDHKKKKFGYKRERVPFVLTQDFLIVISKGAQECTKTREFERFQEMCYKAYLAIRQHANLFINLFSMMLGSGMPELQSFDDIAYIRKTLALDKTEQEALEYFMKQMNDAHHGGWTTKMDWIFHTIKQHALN
T1 sequence (P27986 whole entry partner): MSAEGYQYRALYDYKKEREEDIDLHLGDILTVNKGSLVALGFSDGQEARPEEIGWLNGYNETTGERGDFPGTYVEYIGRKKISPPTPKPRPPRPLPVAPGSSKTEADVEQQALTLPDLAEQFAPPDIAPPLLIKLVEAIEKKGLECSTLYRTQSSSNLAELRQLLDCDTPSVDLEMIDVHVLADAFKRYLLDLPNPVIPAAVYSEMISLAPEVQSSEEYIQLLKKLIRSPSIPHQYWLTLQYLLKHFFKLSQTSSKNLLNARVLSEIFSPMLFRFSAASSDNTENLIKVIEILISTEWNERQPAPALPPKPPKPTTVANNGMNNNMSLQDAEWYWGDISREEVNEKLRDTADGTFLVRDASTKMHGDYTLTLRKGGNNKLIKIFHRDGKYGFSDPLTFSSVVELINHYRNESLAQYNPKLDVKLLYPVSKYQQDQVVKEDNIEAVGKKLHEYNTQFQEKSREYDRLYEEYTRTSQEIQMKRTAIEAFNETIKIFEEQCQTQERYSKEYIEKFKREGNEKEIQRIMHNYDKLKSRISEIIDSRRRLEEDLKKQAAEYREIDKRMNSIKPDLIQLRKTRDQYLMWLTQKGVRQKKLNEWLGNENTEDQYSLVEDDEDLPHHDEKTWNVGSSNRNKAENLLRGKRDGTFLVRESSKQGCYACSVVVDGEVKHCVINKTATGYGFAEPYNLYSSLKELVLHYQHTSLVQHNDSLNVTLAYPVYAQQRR

As a reminder, the IC50 is the concentration at which inhibition is half-maximal. Consider `O=C(NCc1cccnc1)c1cc(-c2csc3c(=O)cc(N4CCOCC4)oc23)cc2c1OCCO2` [SRX3212], for which the IC50 against PI3Kα is 22 nM; with JeKo-1 cells [1], 280 nM; with SKNBE-2 cells, 3200 nM; with HCT116 cells, 1300 nM; with Mino cells, 440 nM; at BRD4BD1, 3.7 nM. Further, the IC50 is 240 nM with Z138 cells and 32 nM on BRD4BD2. In data set [2], the “AKT phosphorylation at Ser473” value is recorded as “concomitant decrease in levels of AKT phosphorylation at Ser473”. The “cytotoxic activity in prostate cancer cell line PC3” value in the data set on PC3 cells is listed as “Neither inhibitor sensitized”. Besides, the “increase in potency of SRX3212 compared to SRX3212P” value at BRD4BD1 (BRD4BD1) is “sevenfold”.

Turning to `O=c1cc(N2CCNCC2)oc2c(-c3ccc4c(c3)OCCO4)csc12` [SF2523P], the IC50 is 48700 nM at PI3Kα, 388 nM on BRD4BD1 and 15700 nM on BRD4BD2.

Turning to `CN(C)C(=O)c1cc2cnc(Nc3ccc(-c4csc5c(=O)cc(N6CCOCC6)oc45)cc3)nc2n1C1CCCC1` [SRX3177], the “tumor growth vs vehicle control, Huh7 xenograft” value in data set [3] was “significant abrogation of tumor growth”. The “induction of early apoptosis, Huh7” value in the data set on Huh7 cells [4] is listed as “~ threefold”. The “tumor growth vs vehicle control, JeKo-1 xenograft” value in data set [5] was “significant abrogation of tumor growth”. Besides, in the data set with JeKo-1 cells [6], the “cell cycle arrest at higher doses (near the IC50), JeKo-1” value was “induced G2 phase growth arrest” and the “cell cycle arrest at low dosage (near the IC10), JeKo-1” value was “induction of G1 cell cycle arrest”. Moreover, the IC50 in the data set with CDK4 was 2.5 nM. In addition, in the data set on Huh7 cells [7], the “cell cycle arrest at higher doses (near the IC50), Huh7” value was “induced G2 phase growth arrest” and the “cell cycle arrest at low dosage (near the IC10), Huh7” value is recorded as “induction of G1 cell cycle arrest”. Further, in the data set with CHLA-255 cells, the “cell cycle arrest at low dosage (near the IC10), CHLA-255” value is recorded as “induction of G1 cell cycle arrest”. Further, the mortality entry (mouse, in vivo, po) is on record as “no treatment-related death”. In addition, the “adverse effects / toxicity” value (oral gavage, one week) was “no adverse effects were noted”. For the same compound, the animal weight result (oral gavage, one week, vs vehicle) is recorded as “remained the same”.

As for `O=C(NCc1cccnc1)c1cc(-c2csc3c(=O)cc(N4CCNCC4)oc23)cc2c1OCCO2` [SRX3212P], the IC50 against PI3Kα stood at 5700 nM; in the data set with JeKo-1 cells [1], 3100 nM; with SKNBE-2 cells, 15000 nM; in the data set on Mino cells, 3900 nM; at BRD4BD1, 27 nM; in the data set on Z138 cells, 2900 nM. Further, the IC50 at BRD4BD2 is 2810 nM. In addition, the “AKT phosphorylation at Ser473” value in [2] was “did not decrease AKT phosphorylation”. Further, the “cytotoxic activity in prostate cancer cell line PC3” value in the data set on PC3 cells was “Neither inhibitor sensitized”.
